pEC50: −log10 of the molar value. Where two headings read alike, the source gives them in different places.
How the values were obtained:
5HT2B receptors = target: T1, 5HT2B receptors (Homo sapiens, UniProt P41595); experiment: Human 5-HT2B functional high throughput screening assay in CHO-K1 cells (calcium flux); type: cell-based; conditions: for pEC50: CHO-K1 cells, calcium flux
T1 construct: expressed in transfected cells; host or cells: CHO-K1 cells
Method in brief: (§1)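 Serum-starved CHO-K1 cells carrying the receptor; Ca4 dye, 60 min RT. Test compound added after a 10 s baseline, fluorescence followed for 3 min. EC50 from 4-parameter fit; Emax given as % of serotonin effect.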

5HT2C receptors = target: T2, 5HT2C receptors (Homo sapiens, UniProt P28335); experiment: Human 5-HT2C functional high throughput screening assay in CHO-K1 cells (calcium flux); type: cell-based; set-up: expressed in transfected cells; host or cells: CHO-K1 cells; conditions: for Emax: CHO-K1, 5-HT2C, maximum functional response as percentage relative to the effect of serotonin; for pEC50: CHO-K1 cells, calcium flux
T2 sequence (P28335 33-458): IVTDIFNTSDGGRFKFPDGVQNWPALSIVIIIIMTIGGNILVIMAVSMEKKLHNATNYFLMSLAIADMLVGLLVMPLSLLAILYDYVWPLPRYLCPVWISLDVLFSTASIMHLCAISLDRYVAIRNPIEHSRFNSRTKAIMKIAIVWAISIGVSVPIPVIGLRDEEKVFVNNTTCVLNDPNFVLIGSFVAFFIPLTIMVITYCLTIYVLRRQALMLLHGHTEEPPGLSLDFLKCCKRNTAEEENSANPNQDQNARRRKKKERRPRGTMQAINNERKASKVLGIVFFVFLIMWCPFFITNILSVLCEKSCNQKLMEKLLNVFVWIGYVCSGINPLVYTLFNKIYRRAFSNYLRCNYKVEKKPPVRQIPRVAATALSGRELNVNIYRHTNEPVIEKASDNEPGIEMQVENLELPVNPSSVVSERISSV
Method in brief: as §1

[1] = 5-HT2B, maximum functional response as percentage relative to the effect of serotonin
[2] = 5-HT2B agonist activity, read-out: EC50
[3] = 5-HT2C agonist activity, read-out: EC50

T1 sequence (P41595 whole entry): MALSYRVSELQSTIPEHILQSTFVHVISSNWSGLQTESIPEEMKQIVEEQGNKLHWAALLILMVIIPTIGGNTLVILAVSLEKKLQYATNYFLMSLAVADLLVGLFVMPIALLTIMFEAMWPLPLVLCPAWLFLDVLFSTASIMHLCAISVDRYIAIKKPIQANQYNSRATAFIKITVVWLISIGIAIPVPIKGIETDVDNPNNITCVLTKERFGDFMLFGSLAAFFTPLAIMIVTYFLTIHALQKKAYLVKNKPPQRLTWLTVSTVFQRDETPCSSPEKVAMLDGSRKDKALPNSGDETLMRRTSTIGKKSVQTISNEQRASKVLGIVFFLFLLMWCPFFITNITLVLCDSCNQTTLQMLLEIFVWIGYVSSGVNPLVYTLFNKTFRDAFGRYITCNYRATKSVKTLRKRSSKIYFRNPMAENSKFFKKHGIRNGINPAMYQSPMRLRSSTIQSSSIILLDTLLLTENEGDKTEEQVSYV

SMILES | Emax (5HT2B receptors; [1]) | pEC50 (5HT2B receptors; EC50, 5-HT2B agonist activity) | Emax (5HT2C receptors) | pEC50 (5HT2C receptors; EC50, 5-HT2C agonist activity) | pEC50 (5HT2B receptors; [2]) | pEC50 (5HT2C receptors; [3]) | Emax (5HT2C receptors; read-out: Emax) | Emax (5HT2B receptors; CHO-K1)
O=S(=O)(c1ccc(Cl)cc1)N1Cc2cccnc2[C@@H]2CNC[C@H]2C1 (relative stereo) [Example 340, Trans-6-[(4-chlorophenyl)sulfonyl]-5,6,7,7a,8,9,10,10a-octahydropyrido[3,2-c]pyrrolo[3,4-e]azepine] | inactive | < 5.00 | 90% | 7.15 | – | – | – | –
Fc1ccc(-c2cccc3c2NCC[C@@H]2CNC[C@@H]32)cc1 (relative stereo) [Example 401, Trans-7-(4-fluorophenyl)-1,2,3,3a,4,5,6,10b-octahydropyrrolo[3,4-d][1]benzazepine] | inactive | – | – | – | < 5.00 | 6.10 | 70% | –
CN1C[C@@H]2CNC(=O)c3cc(OCc4cccc(F)c4)ccc3[C@H]2C1 [Example 206, (3aS,10bS)-8-(3-Fluorobenzyloxy)-2-methyl-1,2,3,3a,4,5-hexahydrobenzo[e]pyrrolo[3,4-c]azepin-6(10bH)-one] | inactive | – | – | – | < 5.00 | 8.70 | > 120% | –
CC(C)c1ccc(-c2ccc3c(c2)C(=O)NC[C@@H]2CN(C)C[C@@H]32)cc1 (relative stereo) [Example 138, Trans-8-(4-isopropylphenyl)-2-methyl-1,2,3,3a,4,5-hexahydrobenzo[e]pyrrolo[3,4-c]azepin-6(10bH)-one] | inactive | – | – | – | < 5.00 | 7.00 | > 120% | –
O=C1NC[C@@H]2CNC[C@H]2c2ccc(OCc3cccc(F)c3)cc21 (relative stereo) [Example 146, Trans-8-(3-fluorobenzyloxy)-1,2,3,3a,4,5-hexahydrobenzo[e]pyrrolo[3,4-c]azepin-6(10bH)-one] | – | 6.00 | > 120% | 9.10 | – | – | – | 15%
C[C@@H](O)c1cc(-c2ccc3c(c2)C(=O)NC[C@H]2CN(C)C[C@H]32)ccc1F (single isomer, unassigned) [Example 353] | inactive | – | – | – | < 5.00 | 9.52 | 110% | –
CNC(=O)c1ccc2c(c1)C(=O)NC[C@@H]1CN(C)C[C@@H]21 (relative stereo) [Example 125, Trans-N,2-dimethyl-6-oxo-1,2,3,3a,4,5,6,10b-octahydrobenzo[e]pyrrolo[3,4-c]azepine-8-carboxamide] | inactive | – | – | – | < 5.00 | 5.70 | 90% | –
COc1ccc(-c2ccc3c(c2)C(=O)NC[C@@H]2CN(C)C[C@@H]32)c(OC)c1 (relative stereo) [Example 303, Trans-8-(2,4-dimethoxyphenyl)-2-methyl-2,3,3a,4,5,10b-hexahydropyrrolo[3,4-d][2]benzazepin-6(1H)-one] | inactive | – | – | – | < 5.00 | 7.40 | 100% | –
O=C1NC[C@@H]2CN(Cc3ccccc3)C[C@H]2c2ccc(OCCc3cccc(F)c3)cc21 (relative stereo) [Example 119, Trans-2-benzyl-8-(3-fluorophenethoxy)-1,2,3,3a,4,5-hexahydrobenzo[e]pyrrolo[3,4-c]azepin-6(10bH)-one] | inactive | – | – | – | < 5.00 | 7.00 | > 120% | –
COc1cc(F)ccc1-c1ccc2c(c1)C(=O)NC[C@H]1CN(C)C[C@H]21 [Example 326, (3aS,10bS)-8-(4-Fluoro-2-methoxyphenyl)-2-methyl-2,3,3a,4,5,10b-hexahydropyrrolo[3,4-d][2]benzazepin-6(1H)-one] | inactive | – | – | – | < 5.00 | 8.05 | 85% | –
Fc1ccc(COc2cccc3c2OCC[C@H]2CNC[C@H]32)cc1 (relative stereo) [Example 398, Trans-7-[(4-fluorobenzyl)oxy]-2,3,3a,4,5,10b-hexahydro-1H-[1]benzoxepino[4,5-c]pyrrole] | – | 8.52 | 90% | 8.70 | – | – | – | 100%
CN1C[C@H]2CN(C)C(=O)c3cc(-c4cccc(C(C)(C)O)c4)ccc3[C@@H]2C1 (relative stereo) [Example 194, Trans-8-(3-(2-hydroxypropan-2-yl)phenyl)-2,5-dimethyl-1,2,3,3a,4,5-hexahydrobenzo[e]pyrrolo[3,4-c]azepin-6(10bH)-one] | inactive | – | – | – | < 5.00 | 7.70 | > 120% | –
Cc1cc2c(cc1F)C(=O)NC[C@@H]1CNC[C@H]21 (relative stereo) [Example 279, Cis-8-fluoro-9-methyl-1,2,3,3a,4,5-hexahydrobenzo[c]pyrrolo[3,4-e]azepin-6(10bH)-one] | – | 6.05 | > 120% | 7.22 | – | – | – | 90%
O=C1NC[C@@H]2CNC[C@H]2c2ccc(-c3cccc(CCO)c3)cc21 (relative stereo) [Example 252, Trans-8-(3-(2-hydroxyethyl)phenyl)-1,2,3,3a,4,5-hexahydrobenzo[c]pyrrolo[3,4-e]azepin-6(10bH)-one] | inactive | – | – | – | < 5.00 | 9.40 | > 120% | –
CN1C[C@H]2CNC(=O)c3cc(-c4ccc(F)cc4)ccc3[C@@H]2C1 [Example 116, (3aR,10bR)-8-(4-Fluorophenyl)-2-methyl-1,2,3,3a,4,5-hexahydrobenzo[e]pyrrolo[3,4-c]azepin-6(10bH)-one] | inactive | – | – | – | < 5.00 | – | 90% | –
CC(C)c1ccc2c(c1)C(=O)NC[C@@H]1CN(C)C[C@@H]21 (relative stereo) [Example 196, Trans-8-isopropyl-2-methyl-1,2,3,3a,4,5-hexahydrobenzo[e]pyrrolo[3,4-c]azepin-6(10bH)-one] | inactive | – | 30% | – | < 5.00 | 6.30 | – | –
COc1cc(-c2ccc3c(c2)C(=O)NC[C@@H]2CN(C)C[C@@H]32)ccc1F (relative stereo) [Example 320, Trans-8-(4-fluoro-3-methoxyphenyl)-2-methyl-2,3,3a,4,5,10b-hexahydropyrrolo[3,4-d][2]benzazepin-6(1H)-one] | inactive | – | – | – | < 5.00 | 8.15 | 90% | –
Nc1ccc2c(c1)C(=O)NC[C@@H]1CN(Cc3ccccc3)C[C@@H]21 (relative stereo) [Example 141, Trans-8-amino-2-benzyl-1,2,3,3a,4,5-hexahydrobenzo[e]pyrrolo[3,4-c]azepin-6(10bH)-one] | inactive | – | – | – | < 5.00 | 6.22 | > 120% | –
COc1ccc(F)c(-c2ccc3c(c2)C(=O)NC[C@@H]2CN(C)C[C@@H]32)c1 (relative stereo) [Example 323, Trans-8-(2-fluoro-5-methoxyphenyl)-2-methyl-2,3,3a,4,5,10b-hexahydropyrrolo[3,4-d][2]benzazepin-6(1H)-one] | inactive | – | – | – | < 5.00 | 8.05 | 90% | –
O=C1NC[C@@H]2CN(Cc3ccccc3)C[C@H]2c2ccc(OCCc3ccccc3)cc21 (relative stereo) [Example 121, Trans-2-benzyl-8-phenethoxy-1,2,3,3a,4,5-hexahydrobenzo[e]pyrrolo[3,4-c]azepin-6(10bH)-one] | inactive | – | – | – | < 5.00 | 6.70 | 120% | –

— patent US8846951B2 (AbbVie Inc., priority 2009, dated 2014)
